Results on eight compounds are retold here after patent US20090030086A1, “ANTIMICROBIAL AGENTS” (priority 2005, published 2009).

Holding throughout (assay type): cell-based, Staphylococcus aureus
Test [1] deals with S. aureus ATCC 29213. In words: MIC assay. The procedure:
1. Staphylococcus aureus—the principal staphylococcal test micro-organism used in these studies was Staphylococcus aureus ATCC 29213. This strain is the one recommended for QC/QA purposes in Minimum Inhibitory Concentration (MIC) assays by the US Clinical and Laboratory Standards Institute (formerly the NCCLS), an FDA-recognised body.
(§1) The staphylococci and enterococci were cultured and maintained on Mueller-Hinton Medium (agar and broth) at pH 7.2; they were incubated aerobically at 37° C. for 24 hours.
This is a standard international method for quantitatively assessing the antimicrobial activity of a compound in a liquid medium. The method used a 96-well microtitre plate, capable of holding about 200 μl of liquid per well. […] The culture media were as described above for the relevant test organisms.
The wells were inoculated with a liquid suspension of freshly grown micro-organism and incubated under the conditions described above. After incubation, the microtitre plate was examined visually (with the aid of a light box) for cloudiness in each well, which would indicate microbial growth. The MIC value was recorded as the lowest concentration of test compound required to inhibit microbial growth, i.e., the lowest concentration for which the liquid in the well remained clear.
The assays were conducted in duplicate and included both negative (culture medium only) and positive (culture medium, diluting solvent and inoculum) controls.
(§2) The following experiments all used S. aureus ATCC 29213 as the test organism. MIC, MBC and DDA assays, as described above, were carried out using a range of different benzoquinones and hydroquinones. Supplemented DDA assays, in the presence of salt, lipid and blood, were also conducted.

Test [2] concerns S. aureus ATCC 29213. The experiment in a line: MBC assay. The procedure:
as §1
This assay, normally carried out after an MIC assay, determines the minimum concentration of a compound that is lethal to the micro-organism being tested.
These samples were then individually sub-cultured on non-selective agar medium, under the incubation conditions described above. Following incubation they were examined visually for bacterial growth.
as §2

Test [3] deals with S. aureus ATCC 29213. In words: Disc diffusion assay (DDA). The settings on record: for zone of inhibition at 200 µg/disc: Staphylococcus aureus. As for the experimental part:
as §1
(§3) A sterile paper disc was impregnated with a sample of the test compound and a minimum of 30 minutes allowed for the solvents to evaporate as far as possible. The disc was then placed on an agar plate onto which the test micro-organism had been inoculated. The plate was then incubated under the conditions described above, following which it was examined visually for signs of bacterial growth. […] The diameter of this zone of “inhibition” was measured using a ProtoCOL™ automated zone sizer (Synbiosis, Cambridge, UK).
The area of the zone of inhibition was calculated from the measured zone diameter (D) using the formula π(D/2)^2.
(§4) For most DDA assays, 200 μg of each compound was loaded onto each disc.

Test [4] relates to S. aureus ATCC 29213. In words: Supplemented disc diffusion assay. The settings on record: for zone of inhibition at 200 µg/disc: Staphylococcus aureus, ATCC29213, 24 h. The procedure:
as §1, §3
Performance under these conditions can provide a more reliable indication of activity on topical application. For assays conducted using S. aureus strains, the supplements were defibrinated horse blood (5% v/v), lipid (Tween™ 80 at 1% v/v) and sodium chloride (100 mM). For those using Propionibacterium spp. strains, the supplements were lipid (Tween™ 80 at 1% v/v) and sodium chloride (100 mM).
as §2, §4
A general note: In agar diffusion tests the substance spreads into inoculated agar from a disc or well.

The mark [5] stands for this setting: Staphylococcus aureus, ATCC29213, S. aureus ATCC 29213, Mueller-Hinton broth pH 7.2, aerobic, 37° C., 24 hours, read-out: MIC.
The mark [6] stands for this setting: Staphylococcus aureus, ATCC29213, read-out: MBC.
Where [7] appears, read: ATCC29213, S. aureus ATCC 29213, unsupplemented agar, 200 μg per disc (thymoquinone 50 μg, 2,6-dimethoxy-p-benzoquinone 100 μg), read-out: DDA (diameter of zone of inhibition).
Setting [8] is: S. aureus ATCC 29213, Tween 80 at 1% v/v, 200 μg per disc (thymoquinone 50 μg, 2,6-dimethoxy-p-benzoquinone 100 μg), read-out: DDA + lipid.
[9] abbreviates: S. aureus ATCC 29213, defibrinated horse blood 5% v/v, 200 μg per disc (thymoquinone 50 μg, 2,6-dimethoxy-p-benzoquinone 100 μg), read-out: DDA + blood.
[10] abbreviates: S. aureus ATCC 29213, sodium chloride 100 mM, 200 μg per disc (thymoquinone 50 μg, 2,6-dimethoxy-p-benzoquinone 100 μg), read-out: DDA + salt.
Where [11] appears, read: S. aureus ATCC 29213, Mueller-Hinton broth pH 7.2, aerobic, 37° C., 24 hours.
[12] abbreviates: S. aureus ATCC 29213, unsupplemented agar, 200 μg per disc (thymoquinone 50 μg, 2,6-dimethoxy-p-benzoquinone 100 μg).
The mark [13] stands for this setting: S. aureus ATCC 29213, Tween 80 at 1% v/v, 200 μg per disc (thymoquinone 50 μg, 2,6-dimethoxy-p-benzoquinone 100 μg).
Setting [14] is: S. aureus ATCC 29213, defibrinated horse blood 5% v/v, 200 μg per disc (thymoquinone 50 μg, 2,6-dimethoxy-p-benzoquinone 100 μg).
[15] abbreviates: S. aureus ATCC 29213, sodium chloride 100 mM, 200 μg per disc (thymoquinone 50 μg, 2,6-dimethoxy-p-benzoquinone 100 μg).

≈ marks a conversion by molar mass, not a printed value. Read-outs that look alike come from different tables or passages of the source.

For orientation: MIC means the lowest concentration found to suppress growth. Broadly, the MBC is the lowest tested concentration that kills the bacteria rather than only halting them.

In turn, `CC1=C(C)C(=O)C(C)=C(C)C1=O` [duroquinone, 2,3,5,6-tetramethyl-p-benzoquinone] yielded an MIC against S. aureus ATCC 29213 [1] (Staphylococcus aureus, ATCC29213, 24 h, pH 7.2) of 31.2 µg/mL (≈ 190 µM). In the test on S. aureus ATCC 29213 [2], the MIC/MBC ratio worked out at 0.5. The MBC with S. aureus ATCC 29213 [2] (Staphylococcus aureus, ATCC29213) was 62.5 µg/mL (≈ 381 µM). Moreover, the zone of inhibition at 200 µg/disc in the test with S. aureus ATCC 29213 [3] (ATCC29213, read-out: DDA (diameter of zone of inhibition)) is 13.3 mm; in the test with S. aureus ATCC 29213 [4] (read-out: DDA + blood), 0 mm; in the test with S. aureus ATCC 29213 [4] (read-out: DDA + lipid) it was 16.2 mm; with S. aureus ATCC 29213 [4] (read-out: DDA + salt), 16.5 mm.

As for `CC(C)(C)C1=CC(=O)C=C(C(C)(C)C)C1=O` [2,6-di-t-butyl-p-benzoquinone], in the test on S. aureus ATCC 29213 [1] (setting [5]), the MIC turned out to be 62.5 µg/mL (≈ 284 µM). Also, the MIC/MBC ratio in the test on S. aureus ATCC 29213 [2] came out at 0.25. The MBC with S. aureus ATCC 29213 [2] (setting [6]) is 250 µg/mL (≈ 1130 µM). Moreover, the zone of inhibition at 200 µg/disc was 0 mm in the test with S. aureus ATCC 29213 [3] (setting [7]), 9.37 mm with S. aureus ATCC 29213 [4] (setting [8]), 0 mm in the test with S. aureus ATCC 29213 [4] (setting [9]) and 0 mm with S. aureus ATCC 29213 [4] (setting [10]).

The compound `Oc1ccc(O)c(Br)c1` [2-bromo-p-hydroquinone] gave an MIC in the test with S. aureus ATCC 29213 [1] (setting [11]) of 31.25 µg/mL (≈ 165 µM). For the same compound, in the test on S. aureus ATCC 29213 [2], the MBC came to 31.25 µg/mL (≈ 165 µM) and the MIC/MBC ratio was found to be 1. Besides, in the test with S. aureus ATCC 29213 [3] (setting [12]), the “DDA (diameter of zone of inhibition)” value was 20.75 mm. Also, the “DDA + lipid” value in the test with S. aureus ATCC 29213 [4] (setting [13]) turned out to be 17.43 mm. The “DDA + blood” value in the test on S. aureus ATCC 29213 [4] (setting [14]) came to 14.94 mm. For the same compound, the “DDA + salt” value in the test with S. aureus ATCC 29213 [4] (setting [15]) worked out at 18.99 mm.

Regarding `Cc1cccc(O)c1O` [3-methylcatechol], the minimal inhibitory concentration (MIC) in the test on S. aureus ATCC 29213 [1] (setting [5]) amounted to 62.5 µg/mL (≈ 503 µM). For the same compound, the MIC/MBC ratio with S. aureus ATCC 29213 [2] is recorded as 1. The minimum bactericidal concentration (MBC) in the test with S. aureus ATCC 29213 [2] (setting [6]) came out at 62.5 µg/mL (≈ 503 µM). Further, the zone of inhibition at 200 µg/disc in the test with S. aureus ATCC 29213 [3] (setting [7]) came to 19.8 mm; in the test with S. aureus ATCC 29213 [4] (setting [8]), 18.7 mm; with S. aureus ATCC 29213 [4] (setting [9]), 0 mm; in the test on S. aureus ATCC 29213 [4] (setting [10]), 20.2 mm.

In turn, `Oc1ccc(O)c(Cl)c1` [2-chloro-p-hydroquinone] showed a minimum inhibitory concentration (MIC) in the test on S. aureus ATCC 29213 [1] (setting [11]) of 7.8 µg/mL (≈ 54 µM). Moreover, in the test with S. aureus ATCC 29213 [2], the MBC came to 7.8 µg/mL (≈ 54 µM) and the MIC/MBC ratio came to 1. In addition, the “DDA (diameter of zone of inhibition)” value in the test on S. aureus ATCC 29213 [3] (setting [12]) was 17.54 mm. Also, the “DDA + lipid” value in the test on S. aureus ATCC 29213 [4] (setting [13]) is 16.81 mm. In addition, the “DDA + blood” value in the test with S. aureus ATCC 29213 [4] (setting [14]) is on record as 13.70 mm. In addition, the “DDA + salt” value with S. aureus ATCC 29213 [4] (setting [15]) was determined as 19.30 mm.

In the case of `CC(C)(C)c1cc(O)c(C(C)(C)C)cc1O` [2,5-di-t-butyl-p-hydroquinone], the MIC in the test on S. aureus ATCC 29213 [1] (setting [11]) was 15.6 µg/mL (≈ 70.2 µM). In the test on S. aureus ATCC 29213 [2], the MBC was determined as 15.6 µg/mL (≈ 70.2 µM) and the MIC/MBC ratio came out at 1. In addition, the “DDA (diameter of zone of inhibition)” value in the test on S. aureus ATCC 29213 [3] (setting [12]) stood at 10.06 mm. Besides, the “DDA + lipid” value in the test on S. aureus ATCC 29213 [4] (setting [13]) is listed as 10.58 mm. Also, the “DDA + blood” value in the test with S. aureus ATCC 29213 [4] (setting [14]) is reported as 10.89 mm. Also, the “DDA + salt” value in the test on S. aureus ATCC 29213 [4] (setting [15]) is 11.21 mm.

As for `O=[N+]([O-])c1ccc(O)c(O)c1` [4-nitrocatechol], the MIC with S. aureus ATCC 29213 [1] (setting [5]) came out at 125 µg/mL (≈ 806 µM). The MIC/MBC ratio in the test on S. aureus ATCC 29213 [2] is reported as below 0.5. Also, the minimum bactericidal concentration (MBC) with S. aureus ATCC 29213 [2] (setting [6]) was above 250 µg/mL. Besides, the zone of inhibition at 200 µg/disc with S. aureus ATCC 29213 [3] (setting [7]) stood at 18.9 mm; with S. aureus ATCC 29213 [4] (setting [8]), 16.5 mm; in the test with S. aureus ATCC 29213 [4] (setting [9]), 11.8 mm; in the test on S. aureus ATCC 29213 [4] (setting [10]), 19 mm.

Regarding `Cc1ccc(O)c(O)c1` [4-methylcatechol], the MIC in the test on S. aureus ATCC 29213 [1] (setting [5]) stood at 31.2 µg/mL (≈ 252 µM). Also, in the test on S. aureus ATCC 29213 [2], the MIC/MBC ratio is recorded as 1. Besides, in the test with S. aureus ATCC 29213 [2] (setting [6]), the MBC is 31.2 µg/mL (≈ 252 µM). Moreover, the zone of inhibition at 200 µg/disc turned out to be 18.3 mm with S. aureus ATCC 29213 [3] (setting [7]), 20 mm with S. aureus ATCC 29213 [4] (setting [8]), 0 mm in the test with S. aureus ATCC 29213 [4] (setting [9]) and 20.9 mm in the test on S. aureus ATCC 29213 [4] (setting [10]).
